B1: peptide corresponding to the NR Box 3 of the Tif2 coactivator (peptide)
peptide: KENALLRYLLDKDDT
notes: source: synthetic peptide (RS Synthesis)

Tests used:
H390A-LRH-1 = biological target: T1, H390A-LRH-1 (Homo sapiens, UniProt O00482, H390A); set-up: method as in PMID 27694446; details: cited from earlier work
T1 construct: expressed in transfected cells; host or cells: Hela cells

[1] = biological target: T2, Liver receptor homolog-1 (LRH-1) ligand binding domain (UniProt O00482 299-541); assay: crystal structure; LRH-1 LBD (His-tag cleaved) saturated with SS-RJW100, combined with the Tif2 NR Box 3 peptide, 6 mg/ml; hanging drop vapor diffusion at 18 °C with microseeding; 0.05 M sodium acetate pH 4.6, 5–11% PEG4000; details: both partners purified
T2 construct: also called LRH-1 LBD
T2 sequence (O00482 299-541): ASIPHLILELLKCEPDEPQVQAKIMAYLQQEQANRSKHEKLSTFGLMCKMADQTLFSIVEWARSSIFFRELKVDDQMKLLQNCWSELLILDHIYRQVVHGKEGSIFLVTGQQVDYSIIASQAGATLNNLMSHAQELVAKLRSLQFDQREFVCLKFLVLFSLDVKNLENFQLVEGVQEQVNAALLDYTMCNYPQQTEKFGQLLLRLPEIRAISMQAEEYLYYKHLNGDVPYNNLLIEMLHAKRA

T1 sequence (O00482 whole entry H390A): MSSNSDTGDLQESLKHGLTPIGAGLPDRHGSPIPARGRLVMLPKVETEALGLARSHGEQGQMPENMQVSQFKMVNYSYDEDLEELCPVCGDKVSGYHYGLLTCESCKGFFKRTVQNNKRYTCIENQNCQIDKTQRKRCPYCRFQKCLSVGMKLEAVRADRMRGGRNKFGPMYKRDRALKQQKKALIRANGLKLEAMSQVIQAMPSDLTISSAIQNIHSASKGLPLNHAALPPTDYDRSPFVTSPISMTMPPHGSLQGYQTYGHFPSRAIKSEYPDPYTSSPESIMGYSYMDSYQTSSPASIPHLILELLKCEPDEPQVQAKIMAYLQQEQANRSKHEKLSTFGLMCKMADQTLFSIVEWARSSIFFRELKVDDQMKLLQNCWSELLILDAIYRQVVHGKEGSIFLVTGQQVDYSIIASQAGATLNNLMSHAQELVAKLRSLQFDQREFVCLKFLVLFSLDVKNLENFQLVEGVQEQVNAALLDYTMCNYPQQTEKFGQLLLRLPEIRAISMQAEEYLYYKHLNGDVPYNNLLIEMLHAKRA

Row | Molecule | activation of H390A-LRH-1 (H390A-LRH-1) | binding result [1]
1 | CCC/C=C(\CCC)C1=C(c2ccccc2)[C@]2(Nc3ccccc3)CCC[C@@H]2C1 [GSK8470] | cannot activate | –
2 | B1 | – | binds
